PMC8151276, “An Integrated Approach toward NanoBRET Tracers for Analysis of GPCR Ligand Engagement” (Molecules, 2021)

Target: T1, HTR4 (Homo sapiens, UniProt Q13639)
T1 construct: purchased Promega (in-house HiBiT-GPCR construct library, NanoBRET)
Test: NanoBRET screen HiBiT-HTR4 in HEK293
Format: binding
Procedure: Each tracer candidate was screened across the entire library of HiBiT-GPCR constructs using NanoBRET as the detection modality. As depicted in Figure 4A, the specificity of interactions was evaluated through decrease in BRET due to competitive displacement of a bound tracer by excess parental compound. Each tracer was analyzed for binding to each HiBiT-GPCR fusion in the absence and in the presence of competing parental compound. Briefly, HEK293 cells were transfected with HiBiT-GPCR constructs diluted into promoterless DNA to reduce expression and maximize translocation to the cell surface. Each tracer candidate was then screened at concentrations of 1 μM and 0.1 μM across cells expressing these fusions. Cells were treated for 1.5 h with tracer either alone or in the presence of 20 μM competing parental compound (i.e., control). BRET was measured upon addition of purified LgBiT and subsequent complementation with HiBiT genetically fused to a GPCR. The specificity of interactions was assessed through a decrease in BRET signal due to competitive displacement of the bound tracer. To further gauge the robustness of these interactions, the fold response over the control (i.e., BRETtracer/BRETcontrol) was calculated. We chose a 1.5-fold response, which translates to ≥7-fold signal over noise as the minimal threshold required to score an interaction as positive. […]. Below we highlight the screening results obtained for our exemplary fluorescent tracers based on Clozapine, Amitriptyline and AZD1283.
HiBiT-GPCR DNA constructs were diluted in 10 mM Tris pH 8 to a final concentration of 0.01 μg/μL, arrayed in 96-well plates and stored at −20 °C. For transfection, HEK293 cells were suspended in Opti-MEM (without phenol red) supplemented with 2% fetal bovine serum (Seradigm) and 100 units/mL penicillin–streptomycin (Gibco) at a final concentration of 220,000 cells/mL and dispensed into white 96-well plates at 90 μL/well. Subsequent transfections and screens were carried using an Agilent Bravo Automated Liquid Handling Platform. First, the 96-well HiBiT DNA arrays were diluted 25-fold in Opti-MEM (without serum or phenol red) to a final concentration of 0.0004 μg/μL and 20 μL of the diluted DNAs were transferred into new 96-well plates. Next, promoterless carrier DNA (1 μg/μL) was diluted 25-fold (0.04 μg/μL) and then dispensed into the diluted arrays at 20 μL/well. Following brief mixing, Viafect transfection reagent (Promega) diluted 16-fold into Opti-MEM was dispensed into the plates at 40 μL/well. After mixing by pipetting, plates were incubated for 10 min on the pipetting station deck. The DNA-transfection reagent complexes were then added to plates containing cells. To facilitate the screen, 10 μL of DNA-transfection reagent complexes were added in duplicates to the top 4 and bottom 4 rows, resulting in two identical 48-well arrays per plate. Plates with transfected cells were incubated for 18–20 h at 37 °C/5% CO2. A screen of each tracer across the entire library using two different concentrations requires duplicate plates of transfected cells. Depending on the number of tracers being screened, transfections can be scaled up using the same ratios. The next day, for each tracer, four 20× screening solutions in tracer dilution buffer (Promega) were prepared: two duplicates at final concentration of 20 μM and two duplicates at a final concentration of 2 μM. A competing unmodified compound was added to one of each duplicate at a final concentration of 400 μM. The four resulting solutions were diluted 4-fold in Opti-MEM without serum or phenol red to generate 5× solutions (5 µM and 0.5 µM tracer +/− 100 μM competing compound). To screen the library, a BioTek MultiFlo FX liquid dispenser was used to dispense 22.5 µL of tracer solution to the top 4 rows and 22.5 µL tracer + competing compound solution to the 4 bottom rows. Plates were briefly mixed on an orbital shaker and incubated for 1.5 h at room temperature. […]

T1 sequence (Q13639 whole entry): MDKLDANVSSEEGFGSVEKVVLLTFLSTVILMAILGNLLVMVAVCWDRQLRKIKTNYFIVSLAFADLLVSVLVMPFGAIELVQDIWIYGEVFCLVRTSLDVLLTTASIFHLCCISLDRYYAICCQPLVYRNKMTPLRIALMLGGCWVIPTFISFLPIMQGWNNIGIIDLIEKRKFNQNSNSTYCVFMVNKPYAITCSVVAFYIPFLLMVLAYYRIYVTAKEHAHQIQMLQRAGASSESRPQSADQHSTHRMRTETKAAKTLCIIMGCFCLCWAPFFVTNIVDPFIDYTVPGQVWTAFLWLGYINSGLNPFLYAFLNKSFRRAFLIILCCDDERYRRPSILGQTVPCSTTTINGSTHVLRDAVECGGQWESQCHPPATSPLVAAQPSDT

Row | Structure (SMILES) | NanoBRET Fold Response (HTR4, tracer 0.1μM) | NanoBRET Fold Response (HTR4, tracer 1μM) | also measured
1 | O=C(CCc1ccc2n1[B-](F)(F)[N+]1=C(c3ccc[nH]3)C=CC1=C2)NCc1ccc(C(=O)NCCOCCC(=O)N[C@@H]2CC[C@@]3(O)[C@H]4Cc5ccc(O)c6c5[C@@]3(CCN4CC3CC3)[C@H]2O6)cc1 [Naltrexone-3-NB590] | 0.97 | 1.05 | 
2 | CCCn1c(=O)c2[nH]c(-c3ccc(OCC(=O)NCCNC(=O)CCOCCNC(=O)c4ccc(CNC(=O)CCc5ccc6n5[B-](F)(F)[N+]5=C(c7ccc[nH]7)C=CC5=C6)cc4)cc3)nc2n(CCC)c1=O [XAC-3-NB590] | 1.03 | 1.09 | 
3 | CC(C)N(CC[C@H](c1ccccc1)c1cc(CCNC(=O)c2ccc(CNC(=O)CCc3ccc4n3[B-](F)(F)[N+]3=C(c5ccc[nH]5)C=CC3=C4)cc2)ccc1O)C(C)C [Tolterodine-BZ-NB590] | 0.94 | 0.99 | 
4 | N#CN/C(=N\CCNC(=O)c1ccc(N)cc1)NCCCOc1cccc(CN2CCCCC2)c1 [Aminopotentidine (unmodified)] |  |  | NanoBRET Fold Response (HTR4, other tracers/Aminopotentidine (unmodified), 0.1μM): 1.01; NanoBRET Fold Response (HTR4, other tracers/Aminopotentidine (unmodified), 1μM): 1.19
5 | COc1ccc2[nH]c(-c3ccc(CNC(=O)CCOCCOCCOCCOCCNC(=O)CCc4ccc5n4[B-](F)(F)[N+]4=C(c6ccc[nH]6)C=CC4=C5)cc3)c(CCNC(C)=O)c2n1 [AzomelatoninICO9-2-NB590] |  |  | NanoBRET Fold Response (0.1μM tracer): 1.03; NanoBRET Fold Response (1μM tracer): 0.95
6 | CN1CCN(C2=Nc3cc(Cl)ccc3N(CC(=O)NCCOCCOCCOCCOCCNC(=O)CCc3ccc4n3[B-](F)(F)[N+]3=C(c5ccc[nH]5)C=CC3=C4)c3ccccc32)CC1 [Clozapine-c-2-NB590] |  |  | NanoBRET Fold Response (HTR4, 0.1μM tracer): 1.02; NanoBRET Fold Response (HTR4, 1μM tracer): 1.07
7 | COc1ccccc1N1CCN(CCCCN2C(=O)c3ccc(CNC(=O)CCOCCNC(=O)c4ccc(CNC(=O)CCc5ccc6n5[B-](F)(F)[N+]5=C(c7ccc[nH]7)C=CC5=C6)cc4)cc3C2=O)CC1 [NAN-190-3-NB590] | 1.00 | 1.03 | 
8 | Cc1nc2n(c(=O)c1CCN1CCC(c3noc4cc(F)ccc34)CC1)CCCC2OC(=O)NCCOCCOCCOCCOCCNC(=O)CCc1ccc2n1[B-](F)(F)[N+]1=C(c3ccc[nH]3)C=CC1=C2 (centres unmarked) [Risperidone-2-NB590] | 1.08 | 1.51 | 
9 | O=C(CCOCCOCCOCCOCCNC(=O)CCc1ccc2n1[B-](F)(F)[N+]1=C(c3ccc[nH]3)C=CC1=C2)NCCCN1CCN(C2=Nc3ccccc3Oc3ccc(Cl)cc32)CC1 [Loxapine-a-2-NB590] | 1.02 | 1.04 | 
10 | CC(C)N(CC[C@H](c1ccccc1)c1cc(CCNC(=O)CCOCCOCCOCCOCCNC(=O)CCc2ccc3n2[B-](F)(F)[N+]2=C(c4ccc[nH]4)C=CC2=C3)ccc1O)C(C)C [Tolterodine-2-NB590] | 0.92 | 1.00 | 
11 | N#CN=C(NCCCOc1cccc(CN2CCCCC2)c1)NCCNC(=O)CCOCCOCCOCCOCCNC(=O)CCc1ccc2n1[B-](F)(F)[N+]1=C(c3ccc[nH]3)C=CC1=C2 [Aminopotentidine-2-NB590] | 0.97 | 1.05 | 
12 | CCOC(=O)c1cc(C#N)c(N2CCC(C(=O)NS(=O)(=O)Cc3ccccc3/C=C/C(=O)NCCNC(=O)CCc3ccc4n3[B-](F)(F)[N+]3=C(c5ccc[nH]5)C=CC3=C4)CC2)nc1C [AZD1283-1-NB590] |  |  | NanoBRET Fold Response (HTR4, 0.1μM): 1.01; NanoBRET Fold Response (HTR4, 1μM): 1.00
13 | CN(C)CCC=C1c2ccccc2CCc2ccc(C(=O)NCCNC(=O)CCOCCOCCOCCOCCNC(=O)CCc3ccc4n3[B-](F)(F)[N+]3=C(c5ccc[nH]5)C=CC3=C4)cc21 [Amitriptyline-b-2-NB590] |  |  | NanoBRET Fold Response (tracer at 0.1μM): 1.03; NanoBRET Fold Response (tracer at 1μM): 1.09
14 | O=C(CCc1ccc2n1[B-](F)(F)[N+]1=C(c3ccc[nH]3)C=CC1=C2)NCCOCCOCCNC(=O)OCCOCCN1CCN(C2=Nc3ccccc3Sc3ccccc32)CC1 [Quetiapine-a-2-NB590] | 0.98 | 1.00 | 
15 | Cc1cc2c(s1)Nc1ccccc1N=C2N1CCN(CCCNC(=O)CCOCCOCCOCCOCCNC(=O)CCc2ccc3n2[B-](F)(F)[N+]2=C(c4ccc[nH]4)C=CC2=C3)CC1 [Olanzapine-a-2-NB590] | 1.02 | 1.02 | 
16 | CN1CCN(C2=Nc3cc(Cl)ccc3Nc3ccc(CNC(=O)CCOCCOCCOCCOCCNC(=O)CCc4ccc5n4[B-](F)(F)[N+]4=C(c6ccc[nH]6)C=CC4=C5)cc32)CC1 [Clozapine-b-2-NB590] |  |  | NanoBRET Fold Response (HTR4, 0.1μM tracer): 0.98; NanoBRET Fold Response (HTR4, 1μM tracer): 0.99
17 | COc1ccc2c(n1)c(CCNC(C)=O)cn2CCNC(=O)CCc1ccc2n1[B-](F)(F)[N+]1=C(c3ccc[nH]3)C=CC1=C2 [Azamelatonin-1-NB590] |  |  | NanoBRET Fold Response (0.1μM tracer): 0.95; NanoBRET Fold Response (1μM tracer): 1.02
18 | O=C(CCc1ccc2n1[B-](F)(F)[N+]1=C(c3ccc[nH]3)C=CC1=C2)NCc1ccc(C(=O)NCCOCCOCCNCC(O)COc2cccc3ccccc23)cc1 (centres unmarked) [Propranolol-3-NB590] |  |  | NanoBRET Fold Response (HTR4, 0.1μM): 1.26; NanoBRET Fold Response (HTR4, 1μM): 1.41
19 | O=C(CCOCCOCCOCCOCCNC(=O)CCc1ccc2n1[B-](F)(F)[N+]1=C(c3ccc[nH]3)C=CC1=C2)NCCCN1CCN(C2=Nc3cc(Cl)ccc3Nc3ccccc32)CC1 [Clozapine-a-2-NB590] |  |  | NanoBRET Fold Response (HTR4, 0.1μM tracer): 1.02; NanoBRET Fold Response (HTR4, 1μM tracer): 1.12
